Assays:
[1] = tested on: sheet-shaped human skeletal myoblast cell culture; test: Cell survival rate confirmation test, preservative solution based on Hanks' balanced salt solution HBSS (+) (PI staining, flow cytometry); conditions: 2° C. to 8° C.
Procedure: (§1) The sheet-shaped cell cultures were prepared using skeletal myoblast cells (with fibroblast cells contained therein) prepared from a human skeletal muscle by a usual or known method. A cell mixture of human skeletal myoblast cells and human fibroblast cells suspended in a 20% human serum-containing DMEM/F12 medium (Thermo Fisher Scientific Inc.) was seeded at 3.7×10^6 cells/well on a temperature-responsive culture dish (UpCell® 12 well Multi-well, CellSeed Inc.), and was then subjected to the sheet-formation cultivation at 37° C. under 5% CO2 for 12 to 26 hours. After the sheet-formation cultivation, the medium was removed, 700 μL of HBSS (+) (Thermo Fisher Scientific Inc.) which was chilled to 4° C. was added, and then the resultant was left to stand for 10 minutes. Then, gentle pipetting was conducted such as to detach the sheet-shaped cell culture completely. The thus detached sheet-shaped cell culture naturally shrank.
After the sheet-shaped cell culture was completely detached, HBSS (+) was removed, and a fresh supply of room-temperature HBSS (+) was added to conduct rinsing. […]
The sheet-shaped cell culture left to stand under the refrigerated conditions in (1) above was put to measurement of cell survival rate. […] The analysis was conducted using a flow cytometer (Becton Dickinson), and the proportion of PI-unstained cells contained in the whole cells admixed with PI was measured. […]

[2] = tested on: sheet-shaped human skeletal myoblast cell culture; test: Cell survival rate confirmation test, preservative solution based on physiological saline solution (PI staining, flow cytometry); conditions: 2° C. to 8° C.; for cell survival rate: three days
Procedure: as §1, with “completely.” for “completely. The thus detached sheet-shaped cell culture naturally shrank.”
After the sheet-shaped cell culture was completely detached, HBSS (+) was removed, and a fresh supply of room-temperature HBSS (+) was added to conduct rinsing. Such a washing step was repeated four times.
The sheet-shaped cell culture left to stand under the refrigerated conditions in (1) above was put to measurement of cell survival rate. After the sheet-shaped cell culture left to stand in the preservative solution for a predetermined period was dissociated with a trypsin-like protease, the cells were dispensed into a FACS tube to be 3.5×10^5 cells, followed by centrifugation, and the supernatant was discarded. To the resultant was added 3 ml of 0.5% BAS-containing PBS solution, and, after rinsing the cells by vortex, centrifugation was conducted, the supernatant was removed, and 500 μL of a propidium iodide (PI, Becton Dickinson) prepared to a final concentration of 0.6 μg/mL by use of a 0.5% BSA-containing PBS solution was added and mixed. […] The analysis was conducted using a flow cytometer (Becton Dickinson), and the proportion of PI-unstained cells contained in the whole cells admixed with PI was measured. […]

CC1=NN(c2ccccc2)C(=O)C1 [edaravone, 3-methyl-1-phenyl-2-pyrazolin-5-one]
cell survival rate as compared to HBSS (+) not admixed with edaravone ([1]; 100 μM edaravone in HBSS (+), three days to seven days): higher cell survival rate | lowering in the number of live cells from three days to seven days of preservation, compared to edaravone-nonadded HBSS (+) ([1]; HBSS (+)-based edaravone-added preservative solution (100 μM)): restrained | cell survival rate as compared to the case of no addition of edaravone ([2]; 1 μM or 10 μM edaravone in physiological saline solution, five days): increased

tocopherol [vitamin E]
cell survival rate ([2]; 10 μM vitamin E in physiological saline solution): approximately 65% | cell survival rate ([2]; 100 μM vitamin E in physiological saline solution): approximately 65%
